Experimental data reported in PubChem BioAssay (NCI).
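Results reflect a 48-hour exposure of cells in 96-well plates to compound at five concentrations. GI50: concentration for 50% inhibition of growth. TGI is the concentration that stops growth completely.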

Experiments:
Assay in all cases: NCI tumour cell line growth inhibition, 48 h
[1] = tested on: 786-0 renal
[2] = tested on: A498 renal
[3] = tested on: A549 NSCLC
[4] = tested on: ACHN renal
[5] = tested on: BT-549 breast
[6] = tested on: CAKI-1 renal
[7] = tested on: CCRF-CEM leukemia
[8] = tested on: COLO 205 colon
[9] = tested on: DU-145 prostate
[10] = tested on: EKVX NSCLC
[11] = tested on: HCC-2998 colon
[12] = tested on: HCT-116 colon
[13] = tested on: HCT-15 colon
[14] = tested on: HL-60(TB) leukemia
[15] = tested on: HOP-62 NSCLC
[16] = tested on: HOP-92 NSCLC
[17] = tested on: HS 578T breast
[18] = tested on: HT29 colon
[19] = tested on: IGROV1 ovarian
[20] = tested on: K-562 leukemia
[21] = tested on: KM12 colon
[22] = tested on: LOX IMVI melanoma
[23] = tested on: M14 melanoma
[24] = tested on: MALME-3M melanoma
[25] = tested on: MCF7 breast
[26] = tested on: MDA-MB-231 breast
[27] = tested on: MOLT-4 leukemia
[28] = tested on: NCI-H226 lung
[29] = tested on: NCI-H23 lung
[30] = tested on: NCI-H460 lung
[31] = tested on: NCI-H522 lung
[32] = tested on: NCI/ADR-RES ovarian
[33] = tested on: OVCAR-3 ovarian
[34] = tested on: OVCAR-4 ovarian
[35] = tested on: OVCAR-5 ovarian
[36] = tested on: OVCAR-8 ovarian
[37] = tested on: PC-3 prostate
[38] = tested on: RPMI-8226 leukemia
[39] = tested on: RXF 393 renal
[40] = tested on: SF-268 CNS
[41] = tested on: SF-295 CNS
[42] = tested on: SF-539 CNS
[43] = tested on: SK-MEL-2 melanoma
[44] = tested on: SK-MEL-28 melanoma
[45] = tested on: SK-MEL-5 melanoma
[46] = tested on: SK-OV-3 ovarian
[47] = tested on: SN12C renal
[48] = tested on: SNB-19 CNS
[49] = tested on: SNB-75 CNS
[50] = tested on: SW-620 colon
[51] = tested on: T-47D breast
[52] = tested on: TK-10 renal
[53] = tested on: U251 CNS
[54] = tested on: UACC-257 melanoma
[55] = tested on: UACC-62 melanoma
[56] = tested on: UO-31 renal

Q: For Cc1ccc(S(=O)(=O)n2cc(C(=O)C(=O)Nc3ccncc3)c3ccccc32)cc1, which GI50 [1] is on record?
A: The GI50 was 3.89 µM.

Q: And the TGI [1]?
A: Its TGI is > 73.2 µM.

Q: And the GI50 [2]?
A: The GI50 was 4.11 µM.

Q: What about the TGI [2] of the same compound?
A: Its TGI is 77.6 µM.

Q: What about the GI50 [3] of the same compound?
A: The GI50 was 16.5 µM.

Q: What about the TGI [3] of the same compound?
A: The TGI was > 100 µM.

Q: What about the GI50 [4] of the same compound?
A: The GI50 was 7.82 µM.

Q: What about the TGI [4] of the same compound?
A: Its TGI is > 100 µM.

Q: And the GI50 [5]?
A: Its GI50 is 3.62 µM.

Q: And the TGI [5]?
A: Its TGI is > 100 µM.

Q: And the GI50 [6]?
A: Its GI50 is 1.82 µM.

Q: What about the TGI [6] of the same compound?
A: Its TGI is > 100 µM.

Q: What about the GI50 [7] of the same compound?
A: The GI50 was 4.53 µM.

Q: And the TGI [7]?
A: The TGI was > 100 µM.

Q: What about the GI50 [8] of the same compound?
A: Its GI50 is 18.7 µM.

Q: And the TGI [8]?
A: The TGI was 48.1 µM.

Q: What about the GI50 [9] of the same compound?
A: Its GI50 is 3.34 µM.

Q: What about the TGI [9] of the same compound?
A: The TGI was > 100 µM.

Q: What about the GI50 [10] of the same compound?
A: The GI50 was 3.23 µM.

Q: What about the TGI [10] of the same compound?
A: The TGI was > 100 µM.

Q: What about the GI50 [11] of the same compound?
A: Its GI50 is 4.25 µM.

Q: What about the TGI [11] of the same compound?
A: The TGI was > 100 µM.

Q: And the GI50 [12]?
A: The GI50 was 0.465 µM.

Q: And the TGI [12]?
A: The TGI was 23.1 µM.

Q: What about the GI50 [13] of the same compound?
A: The GI50 was 0.555 µM.

Q: And the TGI [13]?
A: Its TGI is > 100 µM.

Q: And the GI50 [14]?
A: The GI50 was 0.635 µM.

Q: And the TGI [14]?
A: Its TGI is 3.66 µM.

Q: What about the GI50 [15] of the same compound?
A: The GI50 was 4.43 µM.

Q: What about the TGI [15] of the same compound?
A: Its TGI is > 100 µM.

Q: And the GI50 [16]?
A: Its GI50 is 0.644 µM.

Q: What about the TGI [16] of the same compound?
A: Its TGI is 7.01 µM.

Q: What about the TGI [17] of the same compound?
A: Its TGI is > 100 µM.

Q: What about the GI50 [18] of the same compound?
A: The GI50 was 0.464 µM.

Q: And the TGI [18]?
A: Its TGI is 12.1 µM.

Q: What about the GI50 [19] of the same compound?
A: The GI50 was 5.74 µM.

Q: And the TGI [19]?
A: The TGI was > 100 µM.

Q: And the GI50 [20]?
A: Its GI50 is 0.522 µM.

Q: What about the TGI [20] of the same compound?
A: Its TGI is > 100 µM.

Q: What about the GI50 [21] of the same compound?
A: The GI50 was 0.595 µM.

Q: And the TGI [21]?
A: Its TGI is > 84.6 µM.

Q: What about the GI50 [22] of the same compound?
A: The GI50 was 1.04 µM.

Q: What about the TGI [22] of the same compound?
A: The TGI was > 100 µM.

Q: And the GI50 [23]?
A: Its GI50 is 0.907 µM.

Q: And the TGI [23]?
A: Its TGI is > 100 µM.

Q: And the GI50 [24]?
A: Its GI50 is 43 µM.

Q: What about the TGI [24] of the same compound?
A: Its TGI is > 100 µM.

Q: And the GI50 [25]?
A: The GI50 was 0.373 µM.

Q: What about the TGI [25] of the same compound?
A: The TGI was 27.3 µM.

Q: And the GI50 [26]?
A: The GI50 was 5.92 µM.

Q: What about the TGI [26] of the same compound?
A: Its TGI is > 100 µM.

Q: What about the GI50 [27] of the same compound?
A: Its GI50 is 1.77 µM.

Q: What about the TGI [27] of the same compound?
A: The TGI was > 76.5 µM.

Q: And the GI50 [28]?
A: The GI50 was 8.6 µM.

Q: And the TGI [28]?
A: The TGI was > 100 µM.

Q: And the GI50 [29]?
A: Its GI50 is 0.556 µM.

Q: And the TGI [29]?
A: Its TGI is > 60.7 µM.

Q: What about the GI50 [30] of the same compound?
A: The GI50 was 7.05 µM.

Q: What about the TGI [30] of the same compound?
A: The TGI was 96.8 µM.

Q: And the GI50 [31]?
A: The GI50 was 0.438 µM.

Q: And the TGI [31]?
A: The TGI was 12.9 µM.

Q: And the GI50 [32]?
A: Its GI50 is 0.406 µM.

Q: What about the TGI [32] of the same compound?
A: The TGI was > 34.1 µM.

Q: And the GI50 [33]?
A: The GI50 was 0.765 µM.

Q: And the TGI [33]?
A: Its TGI is 16.7 µM.

Q: And the GI50 [34]?
A: Its GI50 is 4.22 µM.

Q: And the TGI [34]?
A: The TGI was > 100 µM.

Q: And the GI50 [35]?
A: The GI50 was 8.19 µM.

Q: What about the TGI [35] of the same compound?
A: Its TGI is > 100 µM.

Q: And the GI50 [36]?
A: Its GI50 is 3.1 µM.

Q: And the TGI [36]?
A: The TGI was > 100 µM.

Q: What about the GI50 [37] of the same compound?
A: The GI50 was 1.6 µM.

Q: What about the TGI [37] of the same compound?
A: The TGI was > 100 µM.

Q: What about the GI50 [38] of the same compound?
A: Its GI50 is 1.45 µM.

Q: And the TGI [38]?
A: The TGI was > 100 µM.

Q: And the GI50 [39]?
A: The GI50 was 2.7 µM.

Q: What about the TGI [39] of the same compound?
A: The TGI was 9.29 µM.

Q: And the GI50 [40]?
A: The GI50 was 2 µM.

Q: What about the TGI [40] of the same compound?
A: Its TGI is > 100 µM.

Q: What about the GI50 [41] of the same compound?
A: The GI50 was 1.67 µM.

Q: And the TGI [41]?
A: The TGI was 9.57 µM.

Q: What about the GI50 [42] of the same compound?
A: The GI50 was 1.56 µM.

Q: What about the TGI [42] of the same compound?
A: The TGI was 6.84 µM.

Q: And the GI50 [43]?
A: The GI50 was 5.76 µM.

Q: What about the TGI [43] of the same compound?
A: The TGI was > 71.4 µM.

Q: What about the GI50 [44] of the same compound?
A: Its GI50 is 4.17 µM.

Q: And the TGI [44]?
A: Its TGI is > 100 µM.

Q: What about the GI50 [45] of the same compound?
A: Its GI50 is 0.785 µM.

Q: What about the TGI [45] of the same compound?
A: Its TGI is 21.3 µM.

Q: And the GI50 [46]?
A: Its GI50 is 19.6 µM.

Q: What about the TGI [46] of the same compound?
A: Its TGI is 71.2 µM.

Q: And the GI50 [47]?
A: The GI50 was 4.79 µM.

Q: What about the TGI [47] of the same compound?
A: The TGI was > 100 µM.

Q: What about the GI50 [48] of the same compound?
A: The GI50 was 7.37 µM.

Q: What about the TGI [48] of the same compound?
A: Its TGI is > 100 µM.

Q: What about the GI50 [49] of the same compound?
A: Its GI50 is 1.72 µM.

Q: What about the TGI [49] of the same compound?
A: Its TGI is 16.3 µM.

Q: What about the GI50 [50] of the same compound?
A: The GI50 was 1.23 µM.

Q: What about the TGI [50] of the same compound?
A: Its TGI is > 100 µM.

Q: What about the GI50 [51] of the same compound?
A: Its GI50 is 4.93 µM.

Q: What about the TGI [51] of the same compound?
A: The TGI was > 100 µM.

Q: And the GI50 [52]?
A: The GI50 was 16.8 µM.

Q: What about the TGI [52] of the same compound?
A: Its TGI is > 100 µM.

Q: What about the GI50 [53] of the same compound?
A: Its GI50 is 1.4 µM.

Q: What about the TGI [53] of the same compound?
A: Its TGI is > 56.1 µM.

Q: And the GI50 [54]?
A: Its GI50 is 9.03 µM.

Q: And the TGI [54]?
A: Its TGI is 98.1 µM.

Q: And the GI50 [55]?
A: The GI50 was 0.829 µM.

Q: And the TGI [55]?
A: Its TGI is > 46.7 µM.

Q: And the GI50 [56]?
A: The GI50 was 5.45 µM.

Q: What about the TGI [56] of the same compound?
A: The TGI was > 100 µM.
